The values that follow come from US8022029B2, “Fabric softening compositions comprising polymeric materials” (priority 2007, dated 2011).

The format of data set [1] is physicochemical. Here is the method: (§1) The capsules were then reformulated with a copolymer of polyether and polyurethane-polyurea (commercially available as Lycra) polymeric fiber material. […] The containers were shacked for 16 hours to allow the systems to equilibrate. The polymeric material was then removed, and the esterquat was tested for perfume molecule content (via dosing by HPLC).
(§2) Polystyrene cross-linked with divinyl benzene was explored as the polymeric material. The partition coefficient of perfume molecules between such cross-linked polystyrene coated with an aminoplast shell (commercially available as Serdolit III) and esterquat was evaluated.

Data set [2] is described as follows: Proportion of perfume extracted from esterquat aggregates to polymeric material fibers (dosing by HPLC). The format is physicochemical. The conditions noted are these: 16 hours. Here is the method:
as §1

Data set [3] is classed as physicochemical. As to the method:
as §2
The source holds these as a separate data set.

For data set [4] the following is noted: Table 4; cited from earlier work.
The mark [5] stands for this setting: 1.0 g polymeric material in 100 g softener (3.6% esterquat, 0.38% perfume).
[6] abbreviates: 3.1 g polymeric material in 100 g softener (3.6% esterquat, 0.38% perfume).
Setting [7] is: 5.0 g polymeric material in 100 g softener (3.6% esterquat, 0.38% perfume).

In the case of `C=CCc1ccc(O)c(OC)c1` [Eugenol, eugenol], the “Partition Coefficient of Copolymer of polyether and polyurethane” value in data set [1] came to 1.0. Besides, the results for the “proportion of perfume absorbed by the polymeric material” value (“proportion of perfume absorbed” below) in data set [2] (setting [5]), in data set [2] (setting [6]) and in data set [2] (setting [7]) were 0.24, 0.45 and 0.57, respectively. Further, the “Partition Coefficient of Polystyrene Material” value in data set [3] is given as 6.7.
As to `CCCCCCOC(=O)c1ccccc1O` [Hexyl Salicylate, hexyl salicylate], in data set [1], the “Partition Coefficient of Copolymer of polyether and polyurethane” value is reported as 1.4. Moreover, in data set [4], the “Log P” value is given as 5.26. In addition, the “proportion of perfume absorbed” value in data set [2] (setting [5]) worked out at 0.34; in data set [2] (setting [6]) it was 0.63; in data set [2] (setting [7]), 0.69. In addition, the “Partition Coefficient of Polystyrene Material” value in data set [3] turned out to be 6.7.
As for `C=CC(C)(O)CCC=C(C)C` (stereo not shown) [Linalool, linalool], the “Log P” value in data set [4] is given as 2.43.
With `CC(C)=CCC/C(C)=C\CO` [Nerol, nerol], the “Log P” value in data set [4] was 2.65.
As for `CC(CCO)CCc1ccccc1` (stereo not shown) [Phenyl Hexanol, phenyl hexanol], the “proportion of perfume absorbed” value in data set [2] (setting [5]) is on record as 0.26; in data set [2] (setting [6]), 0.51; in data set [2] (setting [7]) it was 0.60.
